{"source": "paper PMC5641551", "about": "“Chemical Proteomics for Target Discovery of Head-to-Tail Cyclized Mini-Proteins” (Frontiers in Chemistry, 2017)", "key": {"[1]": {"tested_on": "14-3-3 proteins / 25 kDa protein in Jurkat cell lysates", "test": "photo-affinity pull down, Jurkat cell lysate, with competition", "format": "binding, human", "settings": "competitor at 20-, 60- and 100-fold molar excess of biotinylated probe [T20K,W23Bpa]kB1, silver-stained gel", "method": "Splenocytes or Jurkat cells were lysed with 25 mM Tris-HCl pH 7.4, 40 mM KCl, 2.5 mM MgSO4 2.5 mM CaCl2, 2% (v/v) glycerol, 1 mM EDTA under repeated freeze-thaw cycles and 10 min sonification. All experiments were performed in buffer with 1x complete protease inhibitor cocktail (Hoffman-La Roche, Basel, Switzerland). Cell membranes and debris were pelleted for 30 min at 16,000 × g and the supernatant corresponds to the “soluble cell lysate.” Protein concentration was determined using a bicinchoninic acid assay kit (Thermo Scientific) and DTT (1 mM) was added to keep redox potential constant during binding experiments. Photo-affinity pull down samples were submitted to denaturing sodium dodecyl sulfate polyacrylamide gel electrophoresis (PAGE). For immunoblotting according to earlier published protocols (Gruber et al., [2007]; Bergmayr et al., [2013]) proteins were semi-dry transferred onto a nitrocellulose membrane 0.45 μM (Amersham Protran, GE Healthcare, Austria) using a Fast Semi-dry blotter (Bio-Rad) at 0.25 mA per gel for 1 h. […] Chemo-luminescence signals were detected on an imaging system FluorChem HD2 (Alpha Innotech, CA, United States). […] Pixel quantification was carried out using ImageJ v1.47 (National Institute for Health). […]"}, "GST-tagged 14-3-3β": {"tested_on": "GST-tagged 14-3-3β", "test": "co-precipitation of GST-tagged 14-3-3β with cyclotide probe and competitors", "format": "binding", "method": "Splenocytes or Jurkat cells were lysed with 25 mM Tris-HCl pH 7.4, 40 mM KCl, 2.5 mM MgSO4 2.5 mM CaCl2, 2% (v/v) glycerol, 1 mM EDTA under repeated freeze-thaw cycles and 10 min sonification. All experiments were performed in buffer with 1x complete protease inhibitor cocktail (Hoffman-La Roche, Basel, Switzerland). Cell membranes and debris were pelleted for 30 min at 16,000 × g and the supernatant corresponds to the “soluble cell lysate.” Protein concentration was determined using a bicinchoninic acid assay kit (Thermo Scientific) and DTT (1 mM) was added to keep redox potential constant during binding experiments. Photo-affinity pull down samples were submitted to denaturing sodium dodecyl sulfate polyacrylamide gel electrophoresis (PAGE). For immunoblotting according to earlier published protocols (Gruber et al., [2007]; Bergmayr et al., [2013]) proteins were semi-dry transferred onto a nitrocellulose membrane 0.45 μM (Amersham Protran, GE Healthcare, Austria) using a Fast Semi-dry blotter (Bio-Rad) at 0.25 mA per gel for 1 h. Primary rabbit anti-GFP antibody (1:5,000) was from Invitrogen (A6455), rabbit anti-GST antibody (1:2,500) from Abcam (ab9085), and mouse anti-human calcineurin subunit A antibody (1:2,000) clone BE2.1 from eBioscience. Secondary ECL anti-mouse (NA931V) or ECL anti-rabbit (NA934VS) IgG antibodies (1:10,000) were conjugated with horse radish peroxidase (GE Healthcare). Chemo-luminescence signals were detected on an imaging system FluorChem HD2 (Alpha Innotech, CA, United States). For silver staining protein gels were treated immediately after electrophoresis with fixing solution EtOH/ddH2O/acetic acid 50/40/10% (v/v/v) for 20 min. Gels had to be washed acid free, first with 50% (v/v) EtOH for 10 min and with ddH2O for 2 h. Gels were exposed to sensitization buffer 0.025% Na2S2O3 in ddH2O for 3 min, followed by 2 min wash with ddH2O. Gels were silver loaded using a 0.15% AgNO3 solution for 45 min in the dark. The protein bands were stained in development buffer formaldehyde/Na2CO3 0.04/2% (v/w) under rigorous shaking. The reaction was quenched with 5% (v/v) acetic acid solution and the gels were stored until further processing in the stopping buffer at 4°C. Pixel quantification was carried out using ImageJ v1.47 (National Institute for Health).\nBiotin-LC-LC-labeled (ThermoFisher) peptides (1–5 nmoles) with or without ([…]) were incubated with Jurkat cell or murine splenocyte cell lysates (150–500 μg proteins) for 2 h at 4°C in the presence of protease inhibitors. UV-activation of photo-crosslinking moiety benzophenone was induced by irradiation at 360 nm on ice for 15 min (Stratalinker, Stratagene, CA, United States). […]"}, "EAE disease in mice": {"tested_on": "EAE disease in mice", "settings": "cited from earlier work", "from_the_text": "14-3-3s are ubiquitous adaptor proteins that are involved in cell signaling, cell cycle progression and apoptosis as well as protein-protein interaction and cellular transport (Aghazadeh and Papadopoulos, [2016]). The 14-3-3 family is often described as a chimera, since knockout of single isoforms may remain without or with minor phenotypic changes due to functional rescue through the recruitment of other family members. […] Many tumor suppressors or oncogenes are regulated by 14-3- ... || Meanwhile, plant-derived cyclotides are recognized for their pharmaceutical potential. […] Additionally, cyclotides are considered as promising templates for the design of stabilized, orally active peptide epitopes (Jagadish and Camarero, [2010]; Craik et al., [2012]). The cystine-knot motif is capable of tolerance to the incorporation of several amino acid long sequences without impacting its endogenous structure and stability. Using this ..."}}, "note": "No end group written: not given here.", "data": [{"sequence": "CGETCVGGTCNTPGCKCSWPVCTRNGLPV (also: bicyclic or more (positions not given here)) [[T20K]kB1, synthetic cyclotide drug candidate, Thr20 to Lys mutant of kalata B1]", "values": [{"measurement": "effect of competitor on 25 kDa protein band intensity", "setting": "[1]", "result": "revealed an effect on the band intensity of a 25 kDa protein"}, {"measurement": "binding to 14-3-3 family proteins", "setting": "GST-tagged 14-3-3β; conclusion in words from competition co-precipitation", "result": "can bind to 14-3-3 family proteins"}, {"measurement": "binding of probe [T20K,W23Bpa]kB1 to 14-3-3β in presence of competitor", "setting": "GST-tagged 14-3-3β; immunoblot and far Western blot, 2 h at 4°C, competitors 150–500-fold molar excess", "result": "significantly altered"}, {"measurement": "progression of typical symptoms in mouse model of multiple sclerosis", "setting": "EAE disease in mice; oral administration, ref Thell et al., 2016", "result": "halted the progression of typical symptoms"}, {"measurement": "symptoms of the EAE disease in mice", "setting": "EAE disease in mice; reported, reference not given", "result": "reduce the symptoms of the EAE disease in mice"}]}]}
